Experimental findings from ChEMBL document CHEMBL1201862, “PubChem BioAssay data set” (2004) are described below.

Activity calls are given as the source filed them. Some results are limits rather than exact numbers.

Test [1] is described as follows: P. falciparum ATP4 D1247Y mutant growth inhibitors, dose response, NITD609-resistant line, SYBR Green, dry powder (AID 1159571).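 Note: parasites synchronized at ring stage by sorbitol before testing.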 The test is classed as functional, cell-based.
Test [2] in a line: HepG2 cell cytotoxicity, dose response, cytotoxicity control, plate reader, dry powder samples (AID 1159569).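 Note: inhibitor potency with signal falling toward the positive control level.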 The test is classed as functional, cell-based.
Test [3] can be described thus: P. falciparum Dd2 growth inhibitors, dose response, SYBR Green, dry powder samples (AID 1159566).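 Note: potency for growth inhibition with lower SYBR green DNA signal.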 Format: functional, cell-based.
Test [4] in a line: P. falciparum 3D7-ScDHODH growth inhibitors, dose response, SYBR Green, dry powder samples (AID 1159570).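 Note: parasite growth measured after 72 hours of compound exposure.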 Format: functional, cell-based.
The nature of test [5]: P. falciparum Dd2 growth inhibitors, dose response, SYBR Green, cherry-picked samples (AID 1159567). The test is classed as functional, cell-based.
Test [6] in a line: A375 melanoma cell cytotoxicity, dose response, counter-screen for MITF inhibitor project, CellTiter-Glo luminescence, dry powder, set 2 (AID 624489).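 Note: actives are compounds lowering A375 viability meaning general cytotoxicity.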 The test is classed as functional, cell-based. Conditions: A-375.
Test [7] in a line: A375 melanoma cell viability loss, dose response, counter-screen for MITF inhibitor project, CellTiter-Glo luminescence, dry powder, set 4 (AID 624364).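 Note: A375 melanoma cells are MITF independent so this is a counter screen.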 Format: functional, cell-based. Conditions: A-375. On the technique in general: Counterscreens check selectivity or assay interference.
The target in another test is T1, Aminopeptidase N (Plasmodium falciparum FcB1/Columbia, UniProt O96935).
T1 sequence (O96935 whole entry): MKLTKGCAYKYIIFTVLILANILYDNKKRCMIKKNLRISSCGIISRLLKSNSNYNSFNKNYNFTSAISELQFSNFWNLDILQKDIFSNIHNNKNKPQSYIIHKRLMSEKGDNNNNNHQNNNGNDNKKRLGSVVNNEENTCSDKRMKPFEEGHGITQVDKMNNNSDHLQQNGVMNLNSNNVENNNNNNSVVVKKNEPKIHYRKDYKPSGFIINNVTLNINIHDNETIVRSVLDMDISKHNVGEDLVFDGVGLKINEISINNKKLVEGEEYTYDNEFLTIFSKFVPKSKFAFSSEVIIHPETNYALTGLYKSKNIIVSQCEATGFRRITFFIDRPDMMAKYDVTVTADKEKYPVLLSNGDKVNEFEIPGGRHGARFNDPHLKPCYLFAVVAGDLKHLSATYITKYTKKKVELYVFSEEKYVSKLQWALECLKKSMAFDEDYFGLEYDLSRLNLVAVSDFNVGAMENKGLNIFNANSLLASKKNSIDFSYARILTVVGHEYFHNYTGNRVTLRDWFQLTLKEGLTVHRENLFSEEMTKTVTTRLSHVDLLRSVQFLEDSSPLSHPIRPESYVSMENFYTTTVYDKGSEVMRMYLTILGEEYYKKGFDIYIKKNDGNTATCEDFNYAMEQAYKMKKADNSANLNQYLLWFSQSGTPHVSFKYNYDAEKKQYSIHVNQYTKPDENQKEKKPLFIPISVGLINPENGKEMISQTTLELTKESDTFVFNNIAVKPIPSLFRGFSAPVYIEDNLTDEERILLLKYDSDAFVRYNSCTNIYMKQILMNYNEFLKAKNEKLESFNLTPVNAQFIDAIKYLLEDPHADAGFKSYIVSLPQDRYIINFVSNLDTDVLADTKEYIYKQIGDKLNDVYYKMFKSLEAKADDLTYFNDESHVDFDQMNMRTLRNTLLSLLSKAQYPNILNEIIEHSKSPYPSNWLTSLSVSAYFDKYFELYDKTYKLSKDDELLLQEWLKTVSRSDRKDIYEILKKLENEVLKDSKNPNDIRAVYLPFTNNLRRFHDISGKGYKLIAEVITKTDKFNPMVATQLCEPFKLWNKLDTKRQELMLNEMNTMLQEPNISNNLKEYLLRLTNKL
The experiment in a line: P. falciparum M1AAP inhibitors, biochemical, fluorogenic H-Leu-NHMec substrate, 1536-well (AID 1445). More on the design: species or system Plasmodium falciparum 3D7, 3D7.

Test [8] has as its target Endoplasmic reticulum aminopeptidase 1 (Homo sapiens, UniProt Q9NZ08). The experiment in a line: ERAP1 aminopeptidase inhibitors, dose response, biochemical, cherry-pick, set 2, plate reader (AID 743314).
Test [9] is described as follows: HepG2 cell cytotoxicity, dose response, cytotoxicity control, cherry-picked samples (AID 1159577). The test is classed as functional, cell-based.
A short description of test [10]: A549 cell cytotoxicity, dose response, cytotoxicity control, plate reader, cherry-pick, antagonist series (AID 743412). Format: functional, cell-based.
Test [11] can be described thus: LGR2 antagonists, dose response, cell-based, HEK293, CRE-luciferase reporter, cherry pick, set 2 (AID 743343).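 Note: transfected cells were stimulated with diluted bursicon conditioned medium after compound addition.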 The test is classed as functional. In general terms: Reporter assays use an easily measured gene product as a stand-in for the process of interest.
Test [12] is described as follows: HepG2 cell cytotoxicity, dose response, cytotoxicity control, plate reader, cherry-pick, antagonist series (AID 743416). Format: functional, cell-based.
Test [13] in a line: MC4R antagonists, dose response, counter-screen for LGR2 antagonist project, cell-based, plate reader, cherry pick (AID 743444).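 Note: transfected HEK 293 cells stimulated with alpha-MSH peptide; potency of inhibitors of the alpha-MSH evoked signal.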 The test is classed as functional.
A further test addresses Paired box protein Pax-8 (Homo sapiens, UniProt Q06710). The experiment in a line: inhibitors of PAX8-driven TPO luciferase reporter, dose response, RMG-I cells, cherry-pick (AID 687027).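 Note: luciferase reporter driven by Pax8 target thyroperoxidase promoter measured by SteadyGlo luminescence.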 Format: functional, cell-based.
Test [14] can be described thus: cytotoxicity in OVCAR8 ovarian cancer cells, dose response, PAX8 project, cell-based, plate reader, dry powder samples (AID 743197). Format: functional. The note with it: OVCAR-8.
Test [15] in a line: IGROV1 ovarian cancer cell cytotoxicity, dose response, PAX8 inhibitor project, plate reader, dry powder samples (AID 743043). The test is classed as functional, cell-based. Conditions: IGROV-1.
A short description of test [16]: NIH:OVCAR-3 ovarian cancer cell cytotoxicity, dose response, PAX8 inhibitor project, plate reader, dry powder samples (AID 743044). The test is classed as functional, cell-based.
A short description of test [17]: cytotoxicity toward HCT116 cells – cell-based, CellTiter-Glo luminescence, IC50, dose response (AID 1117332). The test is classed as functional. The note with it: HCT-116. In general terms: Cellular ATP, detected with luciferase, serves as a proxy for viable cell number.
The nature of test [18]: SNU-C1 cell viability reduction, dose response, CellTiter-Glo luminescence (AID 1117323). The test is classed as functional, cell-based.
Test [19] in a line: Concentration-dependent survival of SW480 colon cancer line, luminescence detection with CellTiter-Glo, half-maximal inhibitory concentration (AID 1117338). Format: functional.
Test [20] can be described thus: CellTiter-Glo luminescent dose response of DLD-1 viability loss (AID 1117352). The test is classed as functional.
Test [21] can be described thus: cytotoxicity toward Colo320 cells – cell-based, CellTiter-Glo luminescence, IC50, dose response (AID 1117334). The test is classed as functional. The note with it: COLO 320.
Test [22] in a line: HeLa 4N DNA content increase, dose response, cell-based, IC50 (AID 1117351). Format: functional.
Test [23] can be described thus: cytotoxicity toward HT-29 cells – cell-based, CellTiter-Glo luminescence, IC50, dose response (AID 1117330). Format: functional.
Test [24] can be described thus: RKO cell viability reduction, dose response, CellTiter-Glo luminescence (AID 1117322). Format: functional.
Test [25] in a line: HeLa 2N DNA content increase, dose response, cell-based, IC50 (AID 1117349). The test is classed as functional.
The nature of test [26]: HCT116 cell viability decrease, GSK3B pretreatment – CellTiter-Glo, IC50, dose response (AID 1117339). The test is classed as functional. The note with it: HCT-116.
The target in a further test is Albumin (Bos taurus, UniProt P02769). Put plainly: Counterscreen for inhibitors of T-cell receptor (TCR)-CD3 interaction: Fluorescence-based biochemical high throughput dose response assay to identify inhibitors of T-cell receptor (TCR)-CD3 interaction using a TAMRA-labeled BSA probe. The test is classed as functional.
Sequence of Albumin (P02769 whole entry): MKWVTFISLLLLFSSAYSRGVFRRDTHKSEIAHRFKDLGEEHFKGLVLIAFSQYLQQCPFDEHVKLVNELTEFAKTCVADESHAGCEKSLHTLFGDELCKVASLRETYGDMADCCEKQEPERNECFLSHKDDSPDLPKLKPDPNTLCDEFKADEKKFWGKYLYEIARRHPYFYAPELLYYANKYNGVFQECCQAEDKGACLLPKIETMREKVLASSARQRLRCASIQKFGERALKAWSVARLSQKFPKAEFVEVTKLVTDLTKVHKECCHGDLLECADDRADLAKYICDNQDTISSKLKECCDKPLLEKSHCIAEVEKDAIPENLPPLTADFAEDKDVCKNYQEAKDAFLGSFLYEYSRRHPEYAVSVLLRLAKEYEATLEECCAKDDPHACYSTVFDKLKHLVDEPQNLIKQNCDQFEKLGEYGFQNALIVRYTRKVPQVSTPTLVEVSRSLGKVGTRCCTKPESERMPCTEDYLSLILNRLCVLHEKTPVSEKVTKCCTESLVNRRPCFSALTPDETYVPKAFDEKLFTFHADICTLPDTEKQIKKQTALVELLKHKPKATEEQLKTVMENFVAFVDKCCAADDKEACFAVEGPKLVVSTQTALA
Test [27] deals with T2, Heat shock factor protein 1 (Mus musculus, UniProt P38532).
T2 sequence (P38532 whole entry): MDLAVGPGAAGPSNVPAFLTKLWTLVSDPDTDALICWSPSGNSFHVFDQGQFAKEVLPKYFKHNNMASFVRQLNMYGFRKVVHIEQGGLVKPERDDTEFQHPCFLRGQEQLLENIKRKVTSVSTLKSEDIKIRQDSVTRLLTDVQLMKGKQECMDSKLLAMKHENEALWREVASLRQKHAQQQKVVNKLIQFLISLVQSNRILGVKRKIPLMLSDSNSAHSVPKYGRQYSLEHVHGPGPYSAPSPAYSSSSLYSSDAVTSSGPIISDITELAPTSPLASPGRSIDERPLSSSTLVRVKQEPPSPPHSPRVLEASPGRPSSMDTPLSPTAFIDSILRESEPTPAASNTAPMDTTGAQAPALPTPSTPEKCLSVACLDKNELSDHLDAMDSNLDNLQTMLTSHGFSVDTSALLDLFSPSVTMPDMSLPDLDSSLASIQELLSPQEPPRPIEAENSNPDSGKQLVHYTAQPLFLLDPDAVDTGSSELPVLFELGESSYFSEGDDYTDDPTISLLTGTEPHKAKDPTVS
The experiment in a line: inhibition of MG132-induced HSE-luciferase signal, confirmation, cell-based, NIH3T3, luminescence, dose retest (AID 2382).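 Note: NIH3T3 fibroblasts with HSF1-driven luciferase reporter stressed by proteasome inhibitor MG132; luminescence from HSF1-driven luciferase expression after 8 hours of MG132 stress.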 Format: functional.

Another test addresses T3, Leucine aminopeptidase (Plasmodium falciparum 3D7, UniProt Q8IL11).
T3 sequence (Q8IL11 whole entry): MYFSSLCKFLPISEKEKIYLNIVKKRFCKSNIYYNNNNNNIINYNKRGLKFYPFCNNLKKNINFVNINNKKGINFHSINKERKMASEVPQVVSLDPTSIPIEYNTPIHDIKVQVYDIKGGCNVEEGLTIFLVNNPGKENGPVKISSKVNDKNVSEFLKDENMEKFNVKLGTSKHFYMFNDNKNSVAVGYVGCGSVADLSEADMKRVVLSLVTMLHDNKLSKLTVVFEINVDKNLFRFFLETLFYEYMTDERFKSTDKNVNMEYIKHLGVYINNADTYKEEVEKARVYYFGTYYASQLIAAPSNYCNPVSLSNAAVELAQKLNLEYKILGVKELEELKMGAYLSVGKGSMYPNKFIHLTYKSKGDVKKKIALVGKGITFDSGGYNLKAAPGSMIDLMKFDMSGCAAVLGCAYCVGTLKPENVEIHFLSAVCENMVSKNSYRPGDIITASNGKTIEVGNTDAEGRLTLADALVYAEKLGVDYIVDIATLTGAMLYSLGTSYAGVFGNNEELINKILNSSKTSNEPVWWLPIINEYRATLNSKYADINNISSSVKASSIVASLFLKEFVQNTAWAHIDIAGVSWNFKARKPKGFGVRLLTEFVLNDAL
The experiment in a line: P. falciparum M17LAP inhibitors, primary screen, biochemical, fluorogenic H-Leu-NHMec substrate, 1536-well (AID 1619). Format: functional.

Sequence of Paired box protein Pax-8 (Q06710 whole entry): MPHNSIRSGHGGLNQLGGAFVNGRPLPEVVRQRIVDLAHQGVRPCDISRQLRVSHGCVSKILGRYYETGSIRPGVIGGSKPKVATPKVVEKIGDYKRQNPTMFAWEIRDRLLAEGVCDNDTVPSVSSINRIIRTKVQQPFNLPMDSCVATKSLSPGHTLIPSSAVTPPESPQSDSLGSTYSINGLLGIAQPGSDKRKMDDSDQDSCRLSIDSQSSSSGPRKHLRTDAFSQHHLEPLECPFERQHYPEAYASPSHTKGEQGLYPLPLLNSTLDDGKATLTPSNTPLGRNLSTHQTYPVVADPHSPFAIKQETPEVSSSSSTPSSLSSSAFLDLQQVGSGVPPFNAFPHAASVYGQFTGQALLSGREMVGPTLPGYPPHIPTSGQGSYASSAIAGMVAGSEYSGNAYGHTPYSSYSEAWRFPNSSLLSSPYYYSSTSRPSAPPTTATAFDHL
Sequence of Endoplasmic reticulum aminopeptidase 1 (Q9NZ08 whole entry): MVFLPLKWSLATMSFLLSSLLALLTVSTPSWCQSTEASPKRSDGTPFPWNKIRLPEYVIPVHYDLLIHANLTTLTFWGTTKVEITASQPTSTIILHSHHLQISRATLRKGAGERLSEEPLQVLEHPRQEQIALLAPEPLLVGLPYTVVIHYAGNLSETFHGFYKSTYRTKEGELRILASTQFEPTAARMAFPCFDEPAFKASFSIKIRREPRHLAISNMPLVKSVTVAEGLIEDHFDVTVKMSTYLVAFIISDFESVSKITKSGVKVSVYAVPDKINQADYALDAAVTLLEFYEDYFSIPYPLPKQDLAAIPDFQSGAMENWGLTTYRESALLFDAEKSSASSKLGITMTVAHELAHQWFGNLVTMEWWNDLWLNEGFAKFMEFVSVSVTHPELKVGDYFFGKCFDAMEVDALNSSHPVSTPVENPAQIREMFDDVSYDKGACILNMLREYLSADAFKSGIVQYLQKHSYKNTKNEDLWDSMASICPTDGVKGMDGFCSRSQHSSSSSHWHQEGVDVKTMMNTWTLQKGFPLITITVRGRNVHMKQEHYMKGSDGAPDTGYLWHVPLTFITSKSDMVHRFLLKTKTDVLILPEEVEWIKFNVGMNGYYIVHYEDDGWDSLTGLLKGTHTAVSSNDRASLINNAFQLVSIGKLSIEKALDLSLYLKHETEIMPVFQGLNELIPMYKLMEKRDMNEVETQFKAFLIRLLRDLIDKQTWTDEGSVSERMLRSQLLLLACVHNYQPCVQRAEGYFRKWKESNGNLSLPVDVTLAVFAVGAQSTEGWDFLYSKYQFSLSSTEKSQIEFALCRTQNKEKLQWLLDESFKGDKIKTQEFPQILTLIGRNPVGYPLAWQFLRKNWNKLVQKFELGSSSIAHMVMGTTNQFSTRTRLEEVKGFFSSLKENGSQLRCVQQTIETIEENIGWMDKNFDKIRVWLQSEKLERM

By AC50 is commonly meant the concentration giving half of the maximal activity seen. On to `COc1cccc(NC(=O)N2[C@H](CO)[C@@H](c3ccccc3)[C@H]2CNCC(C)C)c1`, for which the AC50 in test [1] is 1.64 µM (active); in test [2] it was 43.5 µM (active); in test [3], 1.58 µM (active); in [4], 1.44 µM (active); in test [5], 1.75 µM (active).
On to `O=C1C(NS(=O)(=O)c2ccccc2)=C(N2CCCCC2)C(=O)c2ccccc21`, for which the AC50 in test [6] and in test [7] was > 70 µM (inactive) in each case.
For orientation: IC50 means the concentration at which inhibition is half-maximal. With `CCCc1cc(=O)oc2c(CN(CC)CC)c(O)c(Cl)cc12`, the half-inhibitory concentration (IC50) on Aminopeptidase N is 37 µM (active). Also, the AC50 in [8] was 7.13 µM (active).
As for `CCCNC[C@@H]1[C@@H](c2ccc(C3=CCCC3)cc2)[C@@H](CO)N1C(=O)C1CCCC1`, the AC50 in [9] is 32.4 µM (active); in test [5], 4 µM (active).
As to `N#C[C@@H]1[C@H](c2ccc(C#Cc3ccccc3F)cc2)[C@@H](CO)N1C(=O)C1CCC1`, the AC50 in [10] is 31.2 µM (active); in test [11] it was 29.9 µM (active); in [12], 31.5 µM (active); in test [13] it was 22.5 µM (active).
For the molecule `C[C@@H]1CN([C@H](C)CO)C(=O)c2c(c3ccccc3n2C)-c2ccccc2CO[C@@H]1CN(C)C(=O)[C@H](C)c1ccccc1`, the AC50 in [1] was 1.33 µM (active); in test [2], 45.5 µM (active); in [3], 1.1 µM (active); in [4], 1.66 µM (active); in test [5] it was 1.39 µM (active).
With `COc1cccc(-c2ccc3c(c2)[C@H]2[C@H](CCN2S(=O)(=O)c2ccccc2F)[C@@H](CO)N3)c1`, the half-maximal activity concentration (AC50) at Paired box protein Pax-8 is 3.92 µM (active); in test [14], 21.9 µM (active); in test [15], 31.4 µM (active); in test [16], 19.1 µM (active).
For `O=C(CCl)c1ccc(Cl)cc1Cl`, the IC50 in test [17] was 6.3 µM (inactive); in test [18], 2.98 µM (active); in [19], 1.25 µM (active); in [20] it was 2.07 µM (active); in test [21], 0.53 µM (active); in test [22] it was > 10 µM (inactive). In addition, the IC50 is 8.52 µM (inactive) in test [23], 4.3 µM (active) in test [24], 0.514 µM (active) in test [25] and 1.1 µM (active) in [26].
In general, EC50 refers to the concentration giving half of the maximal effect. As to `CC/C(NNC(=O)c1ccccc1O)=C1/C(=O)NC(=O)N(Cc2ccccc2)C1=O`, the IC50 on Albumin was > 94.1 µM (inactive); at Aminopeptidase N it was 7.8 µM (active); at Leucine aminopeptidase, 47.3 µM (active). For the same molecule, the EC50 in test [27] was 30.2 µM (active).
